Measured values taken from ChEMBL document CHEMBL3885861, “Open TG-GATES”.

Species: Rattus norvegicus
Assay: Open TG-GATES - Regimen: Daily Repeat
Format: toxicity, organism-based, Sprague-Dawley
Parameters: regimen Daily Repeat, gender Male, age 6 weeks
Conditions: in vivo, po, route gavage; for APTT / Bas / Eos / Fbg / Hb / Ht / Lym / MCH / MCHC / MCV / Mono / Neu / PT / Plat / RBC / Ret / WBC: tissue Blood; for KIDNEY_L / KIDNEY_R / KIDNEY_TOTAL: tissue Kidney; for LIVER: tissue Liver; for A/G / ALP / ALT / AST / BUN / CRE / Ca / Cl / DBIL / GLC / IP / K / LDH / Na / PL / RALB / TBIL / TC / TG / TP / gamma-GTP: tissue Plasma
[1] = 0 mg/kg, 72 h, dose level Control, time 3 day
[2] = 0 mg/kg, […], dose level Control, time 7 day
[3] = 0 mg/kg, […], dose level Control, time 14 day
[4] = 0 mg/kg, […], dose level Control, time 28 day
[5] = 1 mg/kg, 72 h, dose level Middle, time 3 day

`CN1C(C(=O)Nc2ccccn2)=C(O)c2sc(Cl)cc2S1(=O)=O` [LORNOXICAM] was tested, and the TERMINAL_BW [1] was 242.5 g, the APTT [1] was 20.7 s and the Bas [1] was 0.4%. It also gave an Eos [1] of 1%, a Fbg [1] of 223.4 mg/dL and a Hb [1] of 12.9 g/dL. For the same compound, the Ht [1] was 38.6%, the Lym [1] was 79% and the MCH [1] was 21 pg. It also gave an MCHC [1] of 33.5%, an MCV [1] of 62.6 fL and a Mono [1] of 2.6%. It also gave a Neu [1] of 16.2%, a PT [1] of 11.7 s and a Plat [1] of 126.1 x10_4/uL. The RBC [1] was 617 x10_4/ul, the Ret [1] was 6.1% and the WBC [1] was 110.2 x10_2/uL. For the same compound, the KIDNEY_L [1] was 1 g, the KIDNEY_R [1] was 1 g and the KIDNEY_TOTAL [1] was 2.1 g. It also gave an LIVER [1] of 10.9 g, an A/G [1] of 1.7 and an ALP [1] of 907.8 IU/L. For the same compound, the ALT [1] was 46.2 IU/L, the AST [1] was 91.2 IU/L and the BUN [1] was 14.4 mg/dL. The CRE [1] was 0.4 mg/dL, the Ca [1] was 10.6 mg/dL and the Cl [1] was 104.2 meq/L. For the same compound, the DBIL [1] was 0.094 mg/dL, the GLC [1] was 222.6 mg/dL and the IP [1] was 6.8 mg/dL. For the same compound, the K [1] was 4.1 meq/L, the LDH [1] was 253.8 IU/L and the Na [1] was 141.6 meq/L. It also gave a PL [1] of 145.8 mg/dL, an RALB [1] of 3.5 g/dL and a TBIL [1] of 0.1 mg/dL. The TC [1] was 74.2 mg/dL, the TG [1] was 97.6 mg/dL and the TP [1] was 5.6 g/dL. For the same compound, the gamma-GTP [1] was 1.2 IU/L, the TERMINAL_BW [2] was 279.8 g and the TERMINAL_BW [3] was 335.2 g. The TERMINAL_BW [4] was 380.8 g, the APTT [2] was 20.1 s and the Bas [2] was 0.6%. For the same compound, the Eos [2] was 0.8%, the Fbg [2] was 230.2 mg/dL and the Hb [2] was 13.8 g/dL. It also gave a Ht [2] of 40.8%, a Lym [2] of 82% and an MCH [2] of 20.7 pg. It also gave an MCHC [2] of 33.7%, an MCV [2] of 61.4 fL and a Mono [2] of 2.2%. For the same compound, the Neu [2] was 13.8%, the PT [2] was 11.4 s and the Plat [2] was 132.2 x10_4/uL. The RBC [2] was 664.6 x10_4/ul, the Ret [2] was 4.8% and the WBC [2] was 106.9 x10_2/uL. For the same compound, the APTT [3] was 21.1 s, the Bas [3] was 0.6% and the Eos [3] was 1%. The Fbg [3] was 221.2 mg/dL, the Hb [3] was 14 g/dL and the Ht [3] was 41%. For the same compound, the Lym [3] was 82%, the MCH [3] was 20.3 pg and the MCHC [3] was 34%. The MCV [3] was 59.6 fL, the Mono [3] was 2.4% and the Neu [3] was 14.2%. The PT [3] was 11.5 s, the Plat [3] was 121.8 x10_4/uL and the RBC [3] was 687.4 x10_4/ul. For the same compound, the Ret [3] was 3.7%, the WBC [3] was 100 x10_2/uL and the APTT [4] was 21.4 s. For the same compound, the Bas [4] was 0.6%, the Eos [4] was 1.2% and the Fbg [4] was 223.4 mg/dL. For the same compound, the Hb [4] was 15.8 g/dL, the Ht [4] was 45.2% and the Lym [4] was 81.6%. For the same compound, the MCH [4] was 20.1 pg, the MCHC [4] was 35% and the MCV [4] was 57.6 fL. It also gave a Mono [4] of 1.8%, a Neu [4] of 14.2% and a PT [4] of 11.7 s. It also gave a Plat [4] of 108.5 x10_4/uL, an RBC [4] of 784.8 x10_4/ul and a Ret [4] of 2%. The WBC [4] was 101.8 x10_2/uL, the KIDNEY_L [2] was 1.2 g and the KIDNEY_R [2] was 1.2 g. The KIDNEY_TOTAL [2] was 2.4 g, the KIDNEY_L [3] was 1.3 g and the KIDNEY_R [3] was 1.3 g. The KIDNEY_TOTAL [3] was 2.6 g, the KIDNEY_L [4] was 1.4 g and the KIDNEY_R [4] was 1.3 g. It also gave a KIDNEY_TOTAL [4] of 2.7 g, an LIVER [2] of 13 g and an LIVER [3] of 14.5 g. The LIVER [4] was 14.4 g, the A/G [2] was 1.7 and the ALP [2] was 1004.8 IU/L. For the same compound, the ALT [2] was 33.2 IU/L, the AST [2] was 68.4 IU/L and the BUN [2] was 14 mg/dL. The CRE [2] was 0.4 mg/dL, the Ca [2] was 10.8 mg/dL and the Cl [2] was 102.8 meq/L. For the same compound, the DBIL [2] was 0.1 mg/dL, the GLC [2] was 206 mg/dL and the IP [2] was 6.7 mg/dL. For the same compound, the K [2] was 4 meq/L, the LDH [2] was 206 IU/L and the Na [2] was 140.4 meq/L. The PL [2] was 150 mg/dL, the RALB [2] was 3.6 g/dL and the TBIL [2] was 0.2 mg/dL. It also gave a TC [2] of 70.8 mg/dL, a TG [2] of 132.8 mg/dL and a TP [2] of 5.7 g/dL. The gamma-GTP [2] was 1.2 IU/L, the A/G [3] was 1.5 and the ALP [3] was 781.8 IU/L. The ALT [3] was 35.6 IU/L, the AST [3] was 66.6 IU/L and the BUN [3] was 15.4 mg/dL. For the same compound, the CRE [3] was 0.4 mg/dL, the Ca [3] was 10.7 mg/dL and the Cl [3] was 104.4 meq/L. For the same compound, the DBIL [3] was 0.096 mg/dL, the GLC [3] was 195 mg/dL and the IP [3] was 6.9 mg/dL. It also gave a K [3] of 4 meq/L, an LDH [3] of 196.4 IU/L and a Na [3] of 141.2 meq/L. It also gave a PL [3] of 148.6 mg/dL, an RALB [3] of 3.5 g/dL and a TBIL [3] of 0.2 mg/dL. For the same compound, the TC [3] was 72.8 mg/dL, the TG [3] was 118.4 mg/dL and the TP [3] was 5.8 g/dL. The gamma-GTP [3] was 0.8 IU/L, the A/G [4] was 1.4 and the ALP [4] was 637.4 IU/L. For the same compound, the ALT [4] was 33.6 IU/L, the AST [4] was 67.4 IU/L and the BUN [4] was 15.8 mg/dL. For the same compound, the CRE [4] was 0.5 mg/dL, the Ca [4] was 10.1 mg/dL and the Cl [4] was 103.8 meq/L. It also gave a DBIL [4] of 0.1 mg/dL, a GLC [4] of 198.2 mg/dL and an IP [4] of 6.1 mg/dL. It also gave a K [4] of 4 meq/L, an LDH [4] of 173.2 IU/L and a Na [4] of 141.6 meq/L. The PL [4] was 142.8 mg/dL, the RALB [4] was 3.6 g/dL and the TBIL [4] was 0.2 mg/dL. It also gave a TC [4] of 67.6 mg/dL, a TG [4] of 148.2 mg/dL and a TP [4] of 6.1 g/dL. The gamma-GTP [4] was 1.2 IU/L, the TERMINAL_BW [5] was 239.1 g and the APTT [5] was 18.8 s. It also gave a Bas [5] of 0.8%, an Eos [5] of 0.8% and a Fbg [5] of 276 mg/dL. It also gave a Hb [5] of 11.8 g/dL, a Ht [5] of 35.5% and a Lym [5] of 69.8%. It also gave an MCH [5] of 21 pg, an MCHC [5] of 33.2% and an MCV [5] of 63.4 fL. The Mono [5] was 3.8%, the Neu [5] was 24.4% and the PT [5] was 11.3 s. For the same compound, the Plat [5] was 122.1 x10_4/uL, the RBC [5] was 561.4 x10_4/ul and the Ret [5] was 6.3%. It also gave a WBC [5] of 144.7 x10_2/uL, a KIDNEY_L [5] of 1.1 g and a KIDNEY_R [5] of 1.1 g. It also gave a KIDNEY_TOTAL [5] of 2.2 g, an LIVER [5] of 11.7 g and an A/G [5] of 1.4. It also gave an ALP [5] of 872.4 IU/L, an ALT [5] of 37.2 IU/L and an AST [5] of 65 IU/L. For the same compound, the BUN [5] was 12 mg/dL, the CRE [5] was 0.4 mg/dL and the Ca [5] was 10.4 mg/dL. It also gave a Cl [5] of 104.4 meq/L, a DBIL [5] of 0.098 mg/dL and a GLC [5] of 220.2 mg/dL. It also gave an IP [5] of 7.4 mg/dL, a K [5] of 4.5 meq/L and an LDH [5] of 198.6 IU/L. The Na [5] was 140.8 meq/L, the PL [5] was 150 mg/dL and the RALB [5] was 3 g/dL. The TBIL [5] was 0.2 mg/dL, the TC [5] was 74 mg/dL and the TG [5] was 154 mg/dL. For the same compound, the TP [5] was 5.2 g/dL, the gamma-GTP [5] was 1.6 IU/L and the TERMINAL_BW (1 mg/kg, […], dose level Middle, time 7 day) was 275.8 g.
